{
  "source": "patent US11767316B2",
  "about": "“Non-fused thiophene derivatives and their uses” (ENYO PHARMA, priority 2018, dated 2023)",
  "biological_target": "T1, CISD3 Gene Product (Miner2) (Homo sapiens, UniProt P0C7P0)",
  "T1 sequence (P0C7P0 15-127)": "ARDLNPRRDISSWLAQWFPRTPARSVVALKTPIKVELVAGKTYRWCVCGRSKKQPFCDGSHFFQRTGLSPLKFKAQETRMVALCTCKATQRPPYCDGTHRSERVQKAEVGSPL",
  "assay": "Stability of Fe-S cluster binding of purified NEET protein (absorbance 458 nm), Miner2",
  "format": "biochemical",
  "description": "The modulator effect on the NEET proteins encoded by human CISD1, CISD2, and CISD3 genes by the compounds of the invention has been tested and is reported below. Particularly, the biochemical function of the NEET proteins is measured by the stability of Fe—S cluster binding of the purified NEET proteins.\nThe Fe—S cluster binding capacity of NEET proteins is known to be coordinated by four amino-acids in a stretch of 16 (three Cysteine and one Histidine). As the lability of the Fe—S cluster of NEET proteins is sensitive to the environment, cluster stability measurements are one of the measures of interactions of NEET proteins with small molecules and compounds. NEET protein/2Fe-2S cluster stability can be assessed by monitoring the decay in absorbance of its characteristic 458-nm peak (characteristic of the oxidized 2Fe-2S cluster) over time. Each NEET protein (mitoNEET, NAF-1 and Miner 2) was tested for its Fe—S binding in the absence or presence of a compound according to the invention (see table 3 below). […]\nAt pH 6, all the three NEET proteins (mitoNEET, NAF-1 and Miner 2) have a characteristic rate of loss of the bound Fe—S cluster that can be measured by the decrease of absorbance at wavelength 458 nm over time, using a spectrophotometer. […]\nA reaction mix containing DMSO diluted in the Bis-Tris Buffer with or without a compound of the invention was prepared. […] The absorbance at wavelength 458 nm was taken at 5 minutes intervals at 37° C. with a spectrofluorimeter. […]\nIn addition to time monitoring, residual bound Fe—S cluster to NEET protein was measured at the final point of the spectrometry assay for each Test sample and compared to the Control sample data (in parenthesis table 3). This residual binding is measured by the differential percentage between the absorbance 458 nm at time zero and the absorbance 458 nm at the end of the experiment (i.e. respectively 500 or 180 minutes as described hereabove), showing the percentage of NEET protein still able to bind a Fe—S cluster. […]",
  "data": [
    {"smiles": "O=C(Nc1scc(C2CCc3ccccc3C2)c1C(=O)O)c1ccccc1", "note": "(stereo not drawn) [#16]", "values": [
      {"measurement": "Residual cluster bound at end of experiment (Percentage Absorbance 458 nm at time zero)", "setting": "CISD3 Gene Product, end of experiment 180 minutes, compound 60 μM, pH 6, vehicle control 11%", "result": "11% (11%)"},
      {"measurement": "Time (in minutes) to achieve 50% loss of bound cluster (Absorbance 458 nm)", "setting": "Miner2 20 μM, compound 60 μM, pH 6, 37° C., vehicle control 60", "result": "35 (60) minutes"},
      {"measurement": "Stabiliser or destabiliser of NEET protein/Fe-S cluster binding", "setting": "Miner2, destabiliser = time to 50% cluster loss decreased by more than 25% vs control", "result": "destabilisers"}
    ]}
  ]
}
